Test results reported in patent US6521627B1, “5-Iodo-4-phenethylaminopyrimidine derivative, intermediate thereof, processes for producing the same and agricultural and horticultural pesticides” (UBE Industries, Ltd., priority 1998, dated 2003).

Assays:
[1] = system: southern root knot nematodes; test: Test of effect on southern root knot nematodes; type: in vivo, southern potato root knot nematodes; conditions: wettable powder diluted to 300 ppm, 0.1 ml plus 0.9 ml solution containing 500 nematodes; 25° C., after 2 days
Procedure: (1) Test of effect on southern root knot nematodes The respective wettable powders of Compounds (1) shown in Table 2 prepared as in Example 3 were diluted to 300 ppm with water, 0.1 ml of which is taken into the test tubes, and 0.9 ml of a solution containing 500 southern potato root knot nematodes was added thereto, respectively. Subsequently, these test tubes were left to stand in a thermostat chamber at 25° C., and after 2 days, nematodecidal rate was determined by observing with microscope.

diamondback moth = test: Test of effect on diamondback moth; type: in vivo, diamondback moths (3rd instar larvae); conditions: wettable powder diluted to 300 ppm; cabbage leaves dipped for 30 seconds; 25° C., after 2 days
Procedure: (3) Test of effect on diamondback moth The respective wettable powders of Compounds (1) shown in Table 2 prepared as in Example 3 were diluted to 300 ppm with water containing a surfactant (0.01%), and in these respective chemical solutions, cabbage leaves (5×5 cm) were dipped for 30 seconds, and each leaf was put into the respective plastic cups and air-dried. Subsequently, 10 diamondback moths (3rd instar larvae) were placed in the respective cups, and put the lids on them and they were left to stand in a thermostat chamber at 25° C., and after 2 days, insecticidal rate was determined by counting living and dead insects in the respective cups.

brown rice planthopper = test: Test of effect on brown rice planthopper; type: in vivo, brown rice planthoppers (4th instar larvae); conditions: wettable powder diluted to 300 ppm; young seedlings of rice dipped for 30 seconds; 25° C., after 4 days
Procedure: (§1) (4) Test of effect on brown rice planthopper The respective wettable powders of Compounds (1) shown in Table 2 prepared as in Example 3 were diluted to 300 ppm with water containing a surfactant (0.01%), and in these respective chemical solutions, young seedlings of rice were dipped for 30 seconds, and after air-drying, each was put into the respective glass cylinders. Subsequently, 10 brown rice planthoppers (4th instar larvae) were placed in the respective glass cylinders, and porous stoppers were each placed on them and they were left to stand in a thermostat chamber at 25° C., and after 4 days, insecticidal rate was determined by counting living and dead insects in the respective cylinders.

green rice leafhopper = test: Test of effect on green rice leafhopper; type: in vivo, green rice leafhoppers (4th instar larvae); conditions: wettable powder diluted to 300 ppm; young seedlings of rice dipped for 30 seconds; 25° C., after 4 days
Procedure: as §1, with “(5)” for “(4)”, “green” for “brown”, “leafhopper” for “planthopper”, “leafhoppers” for “planthoppers”

tobacco cutworm = test: Test of effect on tobacco cutworm; type: in vivo, tobacco cutworm (2nd instar larvae); conditions: wettable powder diluted to 500 ppm; soybean leaves dipped for 30 seconds; 25° C., after 2 days
Procedure: (6) Test of effect on tobacco cutworm The respective wettable powders of Compounds (1) shown in Table 2 prepared as in Example 3 were diluted to 500 ppm with water containing a surfactant (0.01%), and in these respective chemical solutions, leave of soybean were dipped for 30 seconds. After air-drying, each of the leave was put into the respective plastic cups, 10 tobacco cutworm (2nd instar larvae) were placed in the respective cups, and put the lids on them and they were left to stand in a thermostat chamber at 25° C. After 2 days, insecticidal rate was determined by counting living and dead insects in the respective cups.

SMILES	melting point	nematodecidal effect (nematodecidal rate) [1]	insecticidal effect (insecticidal rate) (diamondback moth)	insecticidal effect (insecticidal rate) (brown rice planthopper)	insecticidal effect (insecticidal rate) (green rice leafhopper)	insecticidal effect (insecticidal rate) (tobacco cutworm)
CC(=O)OC(C)c1ncnc(NCCc2ccc(OC(F)(F)F)cc2)c1I (centres unmarked) [1-(21), 6-(1-acetoxyethyl)-5-iodo-4-[2-(4-trifluoromethoxyphenyl)ethylamino]pyrimidine]	77 to 79 °C					
CC(F)c1ncnc(NCCc2ccc(OC(F)(F)F)cc2)c1I (centres unmarked) [1-(23), 6-(1-fluoroethyl)-5-iodo-4-[2-(4-trifluoromethoxyphenyl)ethylamino]pyrimidine]		100%	100%	100%	100%	100%
CC(F)c1ncnc(NCCc2ccccc2)c1I (centres unmarked) [Compound 1-(1), 6-(1-fluoroethyl)-5-iodo-4-(2-phenylethylamino)pyrimidine]		100%	100%	100%	100%	
CC(Cl)c1ncnc(NCCc2ccccc2)c1I (centres unmarked) [Compound 1-(2), 6-(1-chloroethyl)-5-iodo-4-(2-phenylethylamino)pyrimidine]	101 to 102 °C					
CC(=O)OC(C)c1ncnc(NCCc2ccccc2)c1I (stereo not drawn) [Compound 1-(3), 6-(l-acetoxyethyl)-5-iodo-4-(2-phenylethylamino)pyrimidine]			100%			
CC(F)c1ncnc(NCCc2ccc(F)cc2)c1I (centres unmarked) [Compound 1-(5), 6-(1-fluoroethyl)-5-iodo-4-[2-(4-fluorophenyl)ethylamino]pyrimidine]		100%	100%	100%	100%	100%
